A word on the EC50: it is the concentration that produces a half-maximal response.

Assay [1] concerns HCT116 colorectal cancer cells.
Assay [2] has as its system MDA-MB-231 breast cancer cell line.
Assay [3] has as its system MCF-7 breast cancer cell line. Put plainly: Cell viability, MCF-7, PrestoBlue assay. It is filed as cell-based. As to conditions: NA = not active. As to the method:
To test our theory we decided to focus on Smac multimers. First, we synthesized a small library of Smac compounds (see, Tables 3 and 4) varying in position 4 substituents having general structure N-MeAla-Tle-4-(trans-Bn)-Pro-Xaa-NHCH2CH2—SH (SEQ ID NO:38), which were tested in vitro using MDA-MB-231 and MCF-7 breast cancer cell lines and PrestoBlue™ assay (Invitrogen).

Starred links: 1 amine or outer side, 2 acyl side, 3 side chain; linkers in the order of their positions; H or OH if unused. Positions of bridges follow the written chain, without caps; N, C: chain ends. Non-standard residues stand in square brackets, D forms with d. Residues, ends and D or L forms follow the SMILES beside them. ξ: configuration not given here. *: point of attachment. X2 = Cc1cn([C@H]2C[C@H](n3cc(CCCC(=O)*)nn3)[C@@H](CO)O2)c(=O)[nH]c1=O; Phe(F5) = N[C@@H](Cc1c(F)c(F)c(F)c(F)c1F)C(=O)O; Pro(4R-Bn) = O=C(O)[C@@H]1C[C@@H](Cc2ccccc2)CN1; Chlorambucil = O=C(CCCc1ccc(N(CCCl)CCCl)cc1)*; Bip = N[C@@H](Cc1ccc(-c2ccccc2)cc1)C(=O)O; Dip = N[C@H](C(=O)O)C(c1ccccc1)c1ccccc1; 1Nal = N[C@@H](Cc1cccc2ccccc12)C(=O)O; 2Nal = N[C@@H](Cc1ccc2ccccc2c1)C(=O)O; oXylylene = c1ccc(C[*:2])c(C[*:1])c1; Tic = O=C(O)[C@@H]1Cc2ccccc2CN1; Cha = N[C@@H](CC1CCCCC1)C(=O)O; Cysteamide = C(CS[*:3])N[*:1]; Tle = CC(C)(C)[C@H](N)C(=O)O; ξDisc = O=C(O)C1NCc2ccccc21; N(CH2CH2)2NH = C1CN(*)CCN1; NMeA = CN[C@@H](C)C(=O)O; Ahx = NCCCCCC(=O)O

For `C[C@H](NC(=O)[C@H](Cc1c(F)c(F)c(F)c(F)c1F)NC(=O)[C@H](CO)NC(=O)[C@@H](N)[C@@H](C)O)C(=O)N[C@@H]1CSCc2ccccc2CSC[C@@H](C(=O)N[C@H](C)C(=O)N[C@@H](CC2CCCCC2)C(=O)N[C@@H](CO)C(=O)N2CCNCC2)NC(=O)[C@H](Cc2cccc3ccccc23)NC(=O)[C@H](Cc2ccc(O)cc2)NC1=O` [ArB14Ao, Thr-Ser-PhF-Ala-Cys-Tyr-Na1-Cys-Ala-Cha-Ser-Pipz] (H-TS[Phe(F5)]A[dC]Y[1Nal]C[dA][Cha]S-{N(CH2CH2)2NH}; linker 5-8 via oXylylene; N-terminus assumed), the EC50 in assay [1] amounted to 83.3 µM.
For `N=C(N)NCCC[C@@H](N)C(=O)N[C@@H](CCCNC(=N)N)C(=O)N[C@@H](Cc1ccc2ccccc2c1)C(=O)N[C@@H](CCCNC(=N)N)C(=O)N[C@@H]1CSCc2ccccc2CSC[C@@H](C(=O)N[C@H](CCCNC(=N)N)C(=O)N[C@@H](CC2CCCCC2)C(=O)N[C@@H](CCCNC(=N)N)C(=O)N2Cc3ccccc3C2C(N)=O)NC(=O)[C@H](Cc2cccc3ccccc23)NC(=O)[C@H](Cc2ccc(O)cc2)NC1=O` (stereo partly drawn) [ArB14Bo, Arg-Arg-Na2-Arg-Cys-Tyr-Na1-Cys-Arg-Cha-Arg-DISC] (H-[dR]R[2Nal]R[dC]Y[1Nal]C[dR][Cha]R[ξDisc]-NH2; linker 5-8 via oXylylene; N-terminus assumed), it took 10.7 ± 0.7 µM to reach a half-maximal effect in assay [1] (EC50).
Still for that read-out and setting: to `Cc1cn([C@H]2C[C@H](n3cc(CCCC(=O)N[C@H](CCCNC(=N)N)C(=O)N[C@@H](CCCNC(=N)N)C(=O)N[C@@H](Cc4c(F)c(F)c(F)c(F)c4F)C(=O)N[C@@H](CCCNC(=N)N)C(=O)N[C@@H]4CSCc5ccccc5CSC[C@@H](C(=O)N[C@H](CCCNC(=N)N)C(=O)N[C@@H](CC5CCCCC5)C(=O)N[C@@H](CCCNC(=N)N)C(=O)N5Cc6ccccc6C5C(N)=O)NC(=O)[C@H](Cc5cccc6ccccc56)NC(=O)[C@H](Cc5ccc(O)cc5)NC4=O)nn3)[C@@H](CO)O2)c(=O)[nH]c1=O` (stereo partly drawn) [ArB14Co-AZT, AZT-Arg-Arg-PhF-Arg-Cys-Tyr-Na1-Cys-Arg-Cha-Arg-DISC] (X2-[dR]R[Phe(F5)]R[dC]Y[1Nal]C[dR][Cha]R[ξDisc]-NH2; linker 5-8 via oXylylene; N-terminus assumed) belongs 30.2 ± 2.5 µM; to `N=C(N)NCCC[C@H](NC(=O)[C@H](Cc1c(F)c(F)c(F)c(F)c1F)NC(=O)[C@H](CCCNC(=N)N)NC(=O)[C@@H](CCCNC(=N)N)NC(=O)CCCCCNC(=O)CCCc1ccc(N(CCCl)CCCl)cc1)C(=O)N[C@@H]1CSCc2ccccc2CSC[C@@H](C(=O)N[C@H](CCCNC(=N)N)C(=O)N[C@@H](CC2CCCCC2)C(=O)N[C@@H](CCCNC(=N)N)C(=O)N2Cc3ccccc3C2C(N)=O)NC(=O)[C@H](Cc2cccc3ccccc23)NC(=O)[C@H](Cc2ccc(O)cc2)NC1=O` (stereo partly drawn) [ArB14Co-CLB, CLB-Ahx-Arg-Arg-PhF-Arg-Cys-Tyr-Na1-Cys-Arg-Cha-Arg-DISC] ({Chlorambucil-Ahx}-[dR]R[Phe(F5)]R[dC]Y[1Nal]C[dR][Cha]R[ξDisc]-NH2; linker 5-8 via oXylylene), 7.5 ± 1.1 µM.
`CN[C@@H](C)C(=O)N[C@H](C(=O)N1C[C@H](Cc2ccccc2)C[C@H]1C(=O)N[C@@H](Cc1c(F)c(F)c(F)c(F)c1F)C(=O)NCCS)C(C)(C)C` [SMAC9, N^MeAla-Tle-(4-Bzl)Pro-PhF-NHCH2CH2SH]: the values for the EC50 in assay [2] and in assay [3] were 27 ± 3.2 µM and 19.8 ± 3 µM, respectively.
Consider `CN[C@@H](C)C(=O)N[C@H](C(=O)N1C[C@H](Cc2ccccc2)C[C@H]1C(=O)N[C@H](CC(=O)NCCS)Cc1ccccc1)C(C)(C)C` [SMAC10, N^MeAla-Tle-(4-Bzl)Pro-bhPhe-NHCH2CH2SH], for which the figures for the concentration giving a half-maximal response (EC50) in assay [2] and in assay [3] were 29.7 ± 3.3 µM and 23.9 ± 2.1 µM, respectively.
For `CN[C@@H](C)C(=O)N[C@H](C(=O)N1C[C@H](Cc2ccccc2)C[C@H]1C(=O)N1Cc2ccccc2C[C@H]1C(=O)NCCS)C(C)(C)C` [SMAC11, N^MeAla-Tle-(4-Bzl)Pro-Tic-NHCH2CH2SH] (H-[NMeA][Tle][Pro(4R-Bn)][Tic]-Cysteamide; N-terminus assumed), in that order: 13.3 ± 1.3 µM and 5.3 ± 0.6 µM.
For `CN[C@@H](C)C(=O)N[C@H](C(=O)N1C[C@H](Cc2ccccc2)C[C@H]1C(=O)N[C@@H](CC1CCCCC1)C(=O)NCCS)C(C)(C)C` [SMAC12, N^MeAla-Tle-(4-Bzl)Pro-Cha-NHCH2CH2SH] (H-[NMeA][Tle][Pro(4R-Bn)][Cha]-Cysteamide; N-terminus assumed), the EC50 came to 10.1 ± 2.6 µM in assay [2] and 21.2 ± 2.4 µM in assay [3].
As for `CN[C@@H](C)C(=O)N[C@H](C(=O)N1C[C@H](Cc2ccccc2)C[C@H]1C(=O)NC(CC(=O)NCCS)c1cccc2ccccc12)C(C)(C)C` (stereo partly drawn) [SMAC13, N^MeAla-Tle-(4-Bzl)Pro-bh^1NalGly-NHCH2CH2SH], the half-maximal effective concentration (EC50) in assay [2] was 21.7 ± 1.3 µM; in assay [3], 12.3 ± 0.5 µM.
Take `CN[C@@H](C)C(=O)N[C@H](C(=O)N1C[C@H](Cc2ccccc2)C[C@H]1C(=O)N[C@@H](Cc1cccc2ccccc12)C(=O)NCCS)C(C)(C)C` [SMAC14, N^MeAla-Tle-(4-Bzl)Pro-^1Na1-NHCH2CH2SH] (H-[NMeA][Tle][Pro(4R-Bn)][1Nal]-Cysteamide; N-terminus assumed): the EC50 in assay [2] came to 4.5 ± 1.1 µM; in assay [3], 13.4 ± 0.5 µM.
On to `CN[C@@H](C)C(=O)N[C@H](C(=O)N1C[C@H](Cc2ccccc2)C[C@H]1C(=O)N[C@@H](Cc1cccc2ccccc12)C(=O)NCCSCc1cc(CSCCNC(=O)[C@H](Cc2cccc3ccccc23)NC(=O)[C@@H]2C[C@@H](Cc3ccccc3)CN2C(=O)[C@@H](NC(=O)[C@H](C)NC)C(C)(C)C)cc(CSCCNC(=O)[C@H](Cc2cccc3ccccc23)NC(=O)[C@@H]2C[C@@H](Cc3ccccc3)CN2C(=O)[C@@H](NC(=O)[C@H](C)NC)C(C)(C)C)c1)C(C)(C)C` [SMAC14-3X, (N^MeAla-Tle-(4-Bzl)Pro-^1Nal-NHCH2CH2S)3—(CH2)3Ph], for which the results for the EC50 in assay [2] and in assay [3] were 7.2 ± 1.5 µM and 120 ± 8.4 µM, respectively.
For the compound `CN[C@@H](C)C(=O)N[C@H](C(=O)N1C[C@H](Cc2ccccc2)C[C@H]1C(=O)N[C@@H](Cc1ccc2ccccc2c1)C(=O)NCCS)C(C)(C)C` [SMAC15, N^MeAla-Tle-(4-Bzl)Pro-^2Nal-NHCH2CH2SH] (H-[NMeA][Tle][Pro(4R-Bn)][2Nal]-Cysteamide; N-terminus assumed), the EC50 in assay [2] is 9.4 ± 0.5 µM; in assay [3], 10.5 ± 0.6 µM.
For the compound `CN[C@@H](C)C(=O)N[C@H](C(=O)N1C[C@H](Cc2ccccc2)C[C@H]1C(=O)N[C@H](C(=O)NCCS)C(c1ccccc1)c1ccccc1)C(C)(C)C` [SMAC16, N^MeAla-Tle-(4-Bzl)Pro-Dpa-NHCH2CH2SH] (H-[NMeA][Tle][Pro(4R-Bn)][Dip]-Cysteamide; N-terminus assumed), the results for the EC50 in assay [2] and in assay [3] were 9.4 ± 0.6 µM and 11.3 ± 1.8 µM, respectively.
As to `CN[C@@H](C)C(=O)N[C@H](C(=O)N1C[C@H](Cc2ccccc2)C[C@H]1C(=O)N[C@@H](Cc1ccc(-c2ccccc2)cc1)C(=O)NCCS)C(C)(C)C` [SMAC17, N^MeAla-Tle-(4-Bzl)Pro-Bip-NHCH2CH2SH] (H-[NMeA][Tle][Pro(4R-Bn)][Bip]-Cysteamide; N-terminus assumed), the concentration giving a half-maximal response (EC50) was 10.6 ± 0.9 µM in assay [2] and 5.7 ± 0.9 µM in assay [3].
As to `CN[C@@H](C)C(=O)N[C@H](C(=O)N1C[C@H](Cc2ccccc2)C[C@H]1C(=O)N[C@@H](Cc1c[nH]c2ccccc12)C(=O)NCCS)C(C)(C)C` [SMAC19, N^MeAla-Tle-(4-Bzl)Pro-Trp-NHCH2CH2SH] (H-[NMeA][Tle][Pro(4R-Bn)]W-Cysteamide; N-terminus assumed), the EC50 in assay [2] is 36.7 ± 3.2 µM; in assay [3] it was 27.6 ± 1.8 µM.
